The record followed here is patent US12616698B2, “Methods for reducing liver fat and for treating fatty liver disorders” (Corcept Therapeutics Incorporated, priority 2021, dated 2026).

For test [1], the system named is patients presumed to have NASH. Description: Phase 2a study: liver volume and liver size by MRI. The conditions noted are these: for Percent Change from Baseline in Liver: liver volume. Format: in vivo, human. From the text:
A Phase 2a, randomized, double-blind, placebo-controlled study (ClinicalTrials.gov Identifier: NCT03823703) was begun to assess the efficacy of two dose levels of miricorilant versus placebo in reducing liver fat in patients who were presumed to have non-alcoholic steatohepatitis (NASH), that presumption based on blood tests and noninvasive measures. Written informed consent was obtained before initiating any study-mandated procedures. The full study was planned to enroll approximately 120 patients, randomized 1:1:1 to receive daily 900 mg miricorilant:600 mg miricorilant: matching placebo.
Patients were randomized in a 1:1:1 ratio to 600 mg miricorilant, 900 mg miricorilant, or placebo. Study drug was administered once daily, orally with 8 oz (240 mL) of water, along with food. Patients were instructed to take a total of 6 tablets at approximately the same time each day. Those in the 600 miricorilant group took 4 miricorilant tablets and 2 placebo tablets. Those in the 900 miricorilant group took 6 miricorilant tablets. Those in the placebo group took 6 placebo tablets. For the week 6 visit, patients were instructed to not take their daily study drug prior to the visit, but to bring their study drug to the site with them so that the study drug can be administered at the site.
MRI images showing the liver of a patient before (left-hand images) and after receiving daily 600 mg miricorilant (right-hand images) are presented in FIGS. 3A, 3B, and 3C.

For the next test, the system named is C57BL/6J male mice. Description: AMLN diet NASH mouse model, once per day oral dosing. Format: in vivo. To be noted: 30 mg/kg/day orally once per day, 8 weeks. The procedure: Two studies were conducted in C57BL/6J male mice (n=12 per group) maintained on a diet high in fat (40%), cholesterol (2%) and fructose (20%; referred to as the AMLN diet: see, e.g., Tolbol et al., World Journal of Gastroenterology, 24(2):179-194 (2018)) for 42 weeks before dosing with miricorilant was initiated. In the first study, all animals ate the AMLN diet, and received either placebo, 30 mg/kg miricorilant, or 60 mg/kg mifepristone once per day orally. […] All animals received the AMLN diet for 42 weeks prior to receiving their first dose of study drug or placebo. 4 weeks prior to receiving that first dose, a liver biopsy and histological examination of biopsy tissue was performed for each animal; 3 weeks prior to receiving that first dose, animals were randomized into three groups: control, miricorilant, or mifepristone. […] At 56 days (week 8) after initiation of drug administration, plasma ALT, AST, triglycerides, total cholesterol, and miricorilant levels were measured, and animals were sacrificed, liver necropsies were performed, liver histological ((NAFLD Activity Score, Fibrosis Stage, steatosis (scored using hematoxylin and eosin staining (HE)), col1a (scored using immunohistochemistry (IHC)) and Galectin-3 (IHC)) and liver biochemical measurements (including liver triglycerides and total cholesterol) were made, and liver and plasma samples were obtained for genetic ((e.g., RNA sequencing) and other analyses.
Thus, in these studies, the mice were subjected to a liver biopsy approximately 4 weeks before initiation of dosing with miricorilant and only mice with confirmed fibrosis (fibrosis stage ≥1) and steatosis (score ≥2) were entered into the study. […] Body weight and food consumption were monitored throughout the study.
Liver samples were fixed in formalin, paraffin embedded and sections were stained with hematoxylin and eosin (H&E) and Sirius Red. Samples were scored for NAS and fibrosis stage using the clinical criteria outlined by Kleiner et al., Hepatology 41:1313-1321 (2005). […]

Entries after “also recorded” stand apart in the source; their conditions may differ.

Consider `O=c1[nH]c(=O)c(Cc2cccc(C(F)(F)F)c2)c([C@H]2CC[C@H](c3ccccc3)CC2)[nH]1` [miricorilant, (E)-6-(4-Phenylcyclohexyl)-5-(3-trifluoromethylbenzyl)-1H-pyrimidine-2,4-dione], for which the “Follow-Up Liver Volume” value turned out to be 1303 mL in test [1] (Patient 1 (responder), 900 mg, baseline 1606 mL); 1314 mL in test [1] (Patient 2 (responder), 900 mg, baseline 1675 mL); 3113 mL in test [1] (Patient 3 (responder), 900 mg, baseline 3857 mL); 1505 mL in test [1] (Patient 4 (responder), 600 mg, baseline 1899 mL). In addition, the “Percent Change from Baseline in Liver” value in test [1] (Patient 1 (responder), 900 mg) was −18.9%; in test [1] (Patient 2 (responder), 900 mg), −21.6%; in test [1] (Patient 3 (responder), 900 mg), −19.3%; in test [1] (Patient 4 (responder), 600 mg), −20.7%. Besides, the “NAFLD Activity Score (NAS)” value with C57BL/6J male mice (AMLN diet, vs control (FIG. 7A)) is on record as “reduced; also recorded: significant reductions; also recorded: either did not increase, or decreased”. Also, in the test on C57BL/6J male mice (post- vs pre-study biopsy (FIG. 7B)), the “Hepatic ballooning portion of the NAFLD score (liver cell degeneration)” value is reported as “reduced”. Also, the “Fibrosis stage score, post-study compared to pre-study” value in the test with C57BL/6J male mice (none showed an increased score) is reported as “some mice in the miricorilant group showed decreased post-study fibrosis stage score”.
